Results reported in PMC8445934, “Transformation of tenofovir into stable ProTide nanocrystals with long-acting pharmacokinetic profiles” (Nature Communications, 2021).
≈ marks a conversion by molar mass, not a printed value. Where “and” joins values, the source holds several entries; their conditions need not be identical. Equal values may be shown once. Read-outs that look alike come from different tables or passages of the source.

Tests used:
[1] = Aqueous and 1-octanol solubility (excess drug, shaking 48 h, UPLC-UV); assay type: physicochemical; conditions: for solubility at 48 h: water, thermodynamic from solid
Protocol: Samples were centrifuged at 20,000 × g for 10 min to separate the solubilized drug from insoluble pellet. Aqueous supernatants were frozen, lyophilized, and then resuspended in MeOH. 1-octanol supernatants were prepared for analysis by dilution in MeOH and samples analyzed for drug content by UPLC-UV (Waters Acquity H Class).

HIV-1ADA = assay: Antiretroviral EC50/IC50 in MDM by HIV-1 RT activity after HIV-1ADA challenge; assay type: cell-based; conditions: for RT activity (cpm/ mL): replicate wells
Protocol: To determine long-term antiretroviral efficacy following a single treatment, MDMs were plated in flat-bottom 12-well plates at a density of 1.2 × 10^6 cells/well. […] After treatment, the cells were washed twice with PBS and cultured in a fresh culture medium without drug with half-media replacement every other day. On days 1, 5, 10, 15, 20, 25, and 30 following treatment, the cells were infected with HIV-1ADA (a macrophage-tropic viral strain) at a multiplicity of infection of 0.1 infectious particles/cell for 8 h. MDM were cultured, and media samples collected on day 10 for the measurement of HIV reverse transcriptase (RT) activity as previously described[64],[65]. Cells were fixed in 2% PFA at each time point, and expression of the HIV-1p24 antigen was determined by immunocytochemistry. […] After 4 h of viral challenge, the cells were washed with PBS and given fresh media that contained the same concentrations of drug (0.00005–5,000 nM). Cell supernatants were collected 10 days later and assayed for HIV-1 RT activity as described above. Replicate studies were performed in CEM-ss CD4+ T-cell cultures. Specifically, cells were plated in 96-well plates, centrifuged at 650 × g for 5 min, and resuspended in (0.1–1,000 nM) drug-containing media for 1 h. The subsequent challenge with HIV-1NL4–3-eGFP, cell culture, sample collection, and determination of HIV-1 RT activity were performed as previously reported[13],[15].

CEM-ss T-cells = conditions: replicates
Protocol: (§1) Supplementary Fi gur e 9. ProTide Biological Characterizations. […]
one- way analysis of variance (ANOVA) followed by Tukey’s post hoc test was used to compare the prodrug and TFV-DP levels among three treatment groups (*P ≤ 0.05, **P < 0.01, […]
(0.0001– 1000 nM) and determined by HIV-1 reverse transcriptase (RT) activity after viral challenge with HIV -1ADA at an MOI of 0.1. Data was normalized and expressed as percentage of HIV-1 control ± SEM; N = 4.
(§2) (1 picture or pasted object on this page, not shown here)

HIV-1NL4–3-eGFP = assay: microbe, parasite or virus in culture; assay type: cell-based; conditions: for % GFP Positive: replicates
Description: as §1, §2

CC(C)OC(=O)[C@H](C)N[P@](=O)(CO[C@H](C)Cn1cnc2c(N)ncnc21)Oc1ccccc1 [TAF, tenofovir alafenamide]
water solubility, individual replicates ([1]; Figure 1C source data): 4.882
solubility at 48 h ([1]; Figure 1C source data, read-out: water solubility, individual replicates): 6160 µg/mL (≈ 12.9 mM)
solubility at 48 h ([1]; room temperature, 48 h, read-out: aqueous solubilities): 5520 µg/mL (≈ 11.6 mM)
EC50 (HIV-1ADA; Human immunodeficiency virus 1, 240 h): 0.22 nM
RT activity (cpm/ mL) (HIV-1ADA; drug concentration 5e-6 nM): 29.681 cpm/ mL and 30.024 cpm/ mL and 28.68 cpm/ mL
RT activity (cpm/ mL) (HIV-1ADA; drug concentration 5e-5 nM): 35.114 cpm/ mL and 41.925 cpm/ mL and 38.687 cpm/ mL
RT activity (cpm/ mL) (HIV-1ADA; drug concentration 0.0005 nM): 33.176 cpm/ mL and 39.763 cpm/ mL and 30.439 cpm/ mL
RT activity (cpm/ mL) (HIV-1ADA; drug concentration 0.005 nM): 15.954 cpm/ mL and 19.78 cpm/ mL and 30.439 cpm/ mL
RT activity (cpm/ mL) (HIV-1ADA; drug concentration 0.05 nM): 13.503 cpm/ mL and 38.469 cpm/ mL
RT activity (cpm/ mL) (HIV-1ADA; drug concentration 0.5 nM): 16.77 cpm/ mL and 16.849 cpm/ mL and 12.873 cpm/ mL
RT activity (cpm/ mL) (HIV-1ADA; drug concentration 5 nM): 0.361 cpm/ mL and 0.448 cpm/ mL and 0.415 cpm/ mL
RT activity (cpm/ mL) (HIV-1ADA; drug concentration 50 nM): 0.452 cpm/ mL and 0.242 cpm/ mL
RT activity (cpm/ mL) (HIV-1ADA; drug concentration 500 nM): 0.23 cpm/ mL and 0.324 cpm/ mL and 0.407 cpm/ mL
RT activity (cpm/ mL) (HIV-1ADA; drug concentration 5000 nM): 0.233 cpm/ mL and 0.252 cpm/ mL and 0.245 cpm/ mL
Prodrug measurements, CEM-ss cells (CEM-ss T-cells; 2 hours): 0.09778 and 0.1063 and 0.08772
Prodrug measurements, CEM-ss cells (CEM-ss T-cells; 4 hours): 0.113 and 0.1292 and 0.1331
Prodrug measurements, CEM-ss cells (CEM-ss T-cells; 8 hours): 0.2769 and 0.2544 and 0.2424
EC50 (HIV-1NL4–3-eGFP; Human immunodeficiency virus 1, CEM-SS): 0.33 nM
% GFP Positive (HIV-1NL4–3-eGFP; Log Drug Concentration (uM) 0): 0.094% and 0.243% and 0.132%
% GFP Positive (HIV-1NL4–3-eGFP; Log Drug Concentration (uM) -1): 0.087% and 0.114% and 0.038%
% GFP Positive (HIV-1NL4–3-eGFP; Log Drug Concentration (uM) -2): 0.071% and 0.098% (2×)
% GFP Positive (HIV-1NL4–3-eGFP; Log Drug Concentration (uM) -3): 0.109% and 0.099% and 0.2%
% GFP Positive (HIV-1NL4–3-eGFP; Log Drug Concentration (uM) -4): 39.441% and 35.802% and 35.047%
% GFP Positive (HIV-1NL4–3-eGFP; Log Drug Concentration (uM) -5): 32.55% and 34.185% and 34.763%
% GFP Positive (HIV-1NL4–3-eGFP; Log Drug Concentration (uM) -6): 38.186% and 33.243% and 31.663%
% GFP Positive (HIV-1NL4–3-eGFP; Log Drug Concentration (uM) -9): 36.164% and 40.34% and 38.638%
% GFP Positive (HIV-1NL4–3-eGFP; Log Drug Concentration (uM) -12): 43.7% and 40.475% and 37.429%
